According to US20260183302A1, “PDK1 REGULATORY COMPOUND AND COMPOSITION CONTAINING THE SAME” (PROVIBIO CO., LTD., priority 2024, published 2026):

How the values were obtained:
[1] = tested on: NHDF (Normal Human Dermal Fibroblast) cells; experiment: Anti-aging in doxorubicin/IGF-1 aged NHDF cells (SA-β-gal, Ki-67 FACS); type: cell-based; conditions: Doxorubicin (100 ng/ml) and IGF-1 (100 ng/ml), GO15F 0.01, 1 μM, 7 days
Experimental: To confirm the anti-aging and rejuvenating effects of the compound GO15F of the present invention, a NHDF (Normal Human Dermal Fibroblast, Promocell) cell model was established by inducing aging with doxorubicin (Doxorubicin), and β-galactosidase activity and Ki-67 expression were analyzed in the cells. First, NHDF cells were seeded at 1×10^4 cells per well in a 12-well plate and stabilized for 24 hours. […] After pre-incubation, the medium was removed, and the cells were cultured for 7 days in medium containing Doxorubicin (100 ng/ml) and IGF-1 (100 ng/ml) with GO15F. During this process, the medium was replaced with fresh medium every 2 days. The cultured cells were washed with PBS, fixed with 1× fixation buffer for 15 minutes, washed again with PBS, and then 300 μL of 1× working SA-β-gal buffer was added to each well. The cells were incubated at 37° C. for 24 hours. After the reaction was terminated, the cells were washed with PBS, and the […] of β-gal-positive cells stained blue was observed and photographed using a light microscope. Additionally, to investigate the effect of the compound (GO15F) of the present invention on proliferation activity in aging-induced NHDF (Normal Human Dermal Fibroblast) cells, Ki-67 expression was measured via FACS analysis. First, NHDF cells were seeded at 1×10^4 cells per well in a 12-well plate and stabilized for 24 hours. […]

[2] = tested on: Human multiple myeloma, KMS26; experiment: Relative cell viability, KMS26 (CCK-8); type: cell-based; conditions: KMS26, 1 μM
Experimental: After that, 10 μL of CCK-8 was added to each well, and the plate was incubated again at 37° C. in a 5% CO2 incubator for 2 hours.
In other words, when the survival rate of untreated cells (DMSO) is set at 100%, the relative cell survival rate in each group treated with the drug at different concentrations is indicated.

[3] = tested on: T cells isolated from mouse spleens; experiment: T cell proliferation inhibition (CFSE flow cytometry, anti-CD3/anti-CD28 stimulation); type: cell-based, C57BL/6 mice; conditions: three days
Procedure, shortened: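 Splenic T cells from 7-week-old C57BL/6 mice, CFSE-labelled, 2× 10^5 cells/well, stimulated with anti-CD3 and anti-CD28 (0.5 μg/mL each). Compound at 10 nM-50 μM in triplicate for three days at 37 °C, 5% CO2; proliferation inhibition (%) derived by flow cytometry.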

Compound	β-galactosidase activity (β-gal-positive cells) [1]	Relative cell viability (%) [2] [%]	Proliferation inhibition rate (%) ([3]; concentration 10 nM)	Proliferation inhibition rate (%) ([3]; concentration 100 nM)	Proliferation inhibition rate (%) ([3]; concentration 1 μM)	Proliferation inhibition rate (%) ([3]; concentration 10 μM)	Proliferation inhibition rate (%) ([3]; concentration 30 μM)	Proliferation inhibition rate (%) ([3]; concentration 50 μM)
Nc1ncccc1C(=O)NCCCCCCCCCCCCF [Compound 57, 2-Amino-N-(12-fluoro-dodecyl)-nicotinamide]	number of β-gal-positive cells decreased							
12-[4-(2,2-dimethylmorpholin-4-yl)]dodecyl-N-(6-aminopurine-2-yl) carboxamide [Compound 11]		31.19	−25.47	100.00	100.00	100.00	100.00	100.00
